Data as given in patent publication US10582709B2, “Butyrolactones as herbicides” (FMC Corporation, priority 2015, dated 2020).

These compounds were tested on ragweed (common ragweed, Ambrosia elatior) (assay: Test A preemergence, ragweed). Conditions: 125 g ai/ha, visual rating after approx. 10 d, 0 to 100 scale, 0 no effect, 100 complete control.
Type: in vivo
Excerpt: (§1) Seeds of plant species selected from barnyardgrass (Echinochloa crus-galli), crabgrass (large crabgrass, Digitaria sanguinalis), kochia (Kochia scoparia), ragweed (common ragweed, Ambrosia elatior), morningglory (Ipomoea spp.), velvetleaf (Abutilon theophrasti), ryegrass, Italian (Italian ryegrass, Lolium multiflorum), foxtail, giant (giant foxtail, Setaria faberii), wheat (Triticum aestivum), corn (Zea mays), and pigweed (Amaranthus retroflexus), were planted into a blend of loam soil and sand and treated preemergence with a directed soil spray using test chemicals formulated in a non-phytotoxic solvent mixture which included a surfactant. At the same time, plants selected from these crop and weed species and also blackgrass (Alopecurus myosuroides), and galium (catchweed bedstraw, Galium aparine), were planted in pots containing the same blend of loam soil and sand and treated with postemergence applications of test chemicals formulated in the same manner. Plants ranged in height from 2 to 10 cm and were in the one- to two-leaf stage for the postemergence treatment. Treated plants and untreated controls were maintained in a greenhouse for approximately 10 d, after which time all treated plants were compared to untreated controls and visually evaluated for injury. Plant response ratings, summarized in Table A, are based on a 0 to 100 scale where 0 is no effect and 100 is complete control. A dash (-) response means no test result.

SMILES | Plant response rating, Ragweed
O=C(Nc1ccccc1F)C1C(=O)OCC1c1ccc(C(F)(F)F)cc1 (racemic) [Compound 8] | 0

Same assay, conditions: 500 g ai/ha, visual rating after approx. 10 d, 0 to 100 scale, 0 no effect, 100 complete control

SMILES | Plant response rating, Ragweed
O=C(Nc1ccccc1F)C1C(=O)OCC1c1ccc(C(F)(F)F)cc1 (racemic) [Compound 8] | 0

What follows are compounds tested on blackgrass (Alopecurus myosuroides) (assay: Test A postemergence, blackgrass). Conditions: 125 g ai/ha, visual rating after approx. 10 d, 0 to 100 scale, 0 no effect, 100 complete control.
Type: in vivo
Excerpt: as §1

SMILES | Plant response rating, Blackgrass
O=C(Nc1ccccc1F)C1C(=O)OCC1c1ccc(C(F)(F)F)cc1 (racemic) [Compound 8] | 0

Same assay, conditions: 500 g ai/ha, visual rating after approx. 10 d, 0 to 100 scale, 0 no effect, 100 complete control

SMILES | Plant response rating, Blackgrass
O=C(Nc1ccccc1F)C1C(=O)OCC1c1ccc(C(F)(F)F)cc1 (racemic) [Compound 8] | 0

These compounds were tested on galium (catchweed bedstraw, Galium aparine) (assay: Test A postemergence, galium). Conditions: 125 g ai/ha, visual rating after approx. 10 d, 0 to 100 scale, 0 no effect, 100 complete control.
Type: in vivo
Excerpt: as §1

SMILES | Plant response rating, Galium
O=C(Nc1ccccc1F)C1C(=O)OCC1c1ccc(C(F)(F)F)cc1 (racemic) [Compound 8] | 0

Same assay, conditions: 500 g ai/ha, visual rating after approx. 10 d, 0 to 100 scale, 0 no effect, 100 complete control

SMILES | Plant response rating, Galium
O=C(Nc1ccccc1F)C1C(=O)OCC1c1ccc(C(F)(F)F)cc1 (racemic) [Compound 8] | 0

The compounds below were run on ryegrass, Italian (Italian ryegrass, Lolium multiflorum) (assay: Test A postemergence, Italian ryegrass). Conditions: 125 g ai/ha, visual rating after approx. 10 d, 0 to 100 scale, 0 no effect, 100 complete control.
Type: in vivo
Excerpt: as §1

SMILES | Plant response rating, Ryegrass, Italian
O=C(Nc1ccccc1F)C1C(=O)OCC1c1ccc(C(F)(F)F)cc1 (racemic) [Compound 8] | 0

Same assay, conditions: 500 g ai/ha, visual rating after approx. 10 d, 0 to 100 scale, 0 no effect, 100 complete control

SMILES | Plant response rating, Ryegrass, Italian
O=C(Nc1ccccc1F)C1C(=O)OCC1c1ccc(C(F)(F)F)cc1 (racemic) [Compound 8] | 0

The compounds below were run on ryegrass, Italian (Italian ryegrass, Lolium multiflorum) (assay: Test A preemergence, Italian ryegrass). Conditions: 125 g ai/ha, visual rating after approx. 10 d, 0 to 100 scale, 0 no effect, 100 complete control.
Type: in vivo
Excerpt: as §1

SMILES | Plant response rating, Ryegrass, Italian
O=C(Nc1ccccc1F)C1C(=O)OCC1c1ccc(C(F)(F)F)cc1 (racemic) [Compound 8] | 0

Same assay, conditions: 500 g ai/ha, visual rating after approx. 10 d, 0 to 100 scale, 0 no effect, 100 complete control

SMILES | Plant response rating, Ryegrass, Italian
O=C(Nc1ccccc1F)C1C(=O)OCC1c1ccc(C(F)(F)F)cc1 (racemic) [Compound 8] | 0

The compounds below were run on corn (Zea mays) (assay: Test A postemergence, corn). Conditions: 125 g ai/ha, visual rating after approx. 10 d, 0 to 100 scale, 0 no effect, 100 complete control.
Type: in vivo
Excerpt: as §1

SMILES | Plant response rating, Corn
O=C(Nc1ccccc1F)C1C(=O)OCC1c1ccc(C(F)(F)F)cc1 (racemic) [Compound 8] | 0

Same assay, conditions: 500 g ai/ha, visual rating after approx. 10 d, 0 to 100 scale, 0 no effect, 100 complete control

SMILES | Plant response rating, Corn
O=C(Nc1ccccc1F)C1C(=O)OCC1c1ccc(C(F)(F)F)cc1 (racemic) [Compound 8] | 0

Each compound was assayed on barnyardgrass (Echinochloa crus-galli) (assay: Test A preemergence, barnyardgrass). Conditions: 125 g ai/ha, visual rating after approx. 10 d, 0 to 100 scale, 0 no effect, 100 complete control.
Type: in vivo
Excerpt: as §1

SMILES | Plant response rating, Barnyardgrass
O=C(Nc1ccccc1F)C1C(=O)OCC1c1ccc(C(F)(F)F)cc1 (racemic) [Compound 8] | 0

Same assay, conditions: 500 g ai/ha, visual rating after approx. 10 d, 0 to 100 scale, 0 no effect, 100 complete control

SMILES | Plant response rating, Barnyardgrass
O=C(Nc1ccccc1F)C1C(=O)OCC1c1ccc(C(F)(F)F)cc1 (racemic) [Compound 8] | 20

Each compound was assayed on barnyardgrass (Echinochloa crus-galli) (assay: Test B flooded paddy test, barnyardgrass). Conditions: 250 g ai/ha; applied to paddy water at 2-leaf stage; 13 to 15 d; scale 0 no effect to 100 complete control.
Type: in vivo
Description: (§2) Plant species in the flooded paddy test selected from rice (Oryza sativa), sedge, umbrella (small-flower umbrella sedge, Cyperus difformis), ducksalad (Heteranthera limosa), and barnyardgrass (Echinochloa crus-galli) were grown to the 2-leaf stage for testing. At time of treatment, test pots were flooded to 3 cm above the soil surface, treated by application of test compounds directly to the paddy water, and then maintained at that water depth for the duration of the test. Treated plants and controls were maintained in a greenhouse for 13 to 15 d, after which time all species were compared to controls and visually evaluated. Plant response ratings, summarized in Table B, are based on a scale of 0 to 100 where 0 is no effect and 100 is complete control. A dash (-) response means no test result.

SMILES | Plant response rating, Flood, Barnyardgrass
O=C(Nc1ccccc1F)C1C(=O)OCC1c1ccc(C(F)(F)F)cc1 (racemic) [Compound 8] | 0

Same assay, conditions: 1000 g ai/ha; applied to paddy water at 2-leaf stage; 13 to 15 d; scale 0 no effect to 100 complete control

SMILES | Plant response rating, Flood, Barnyardgrass
O=C(Nc1ccccc1F)C1C(=O)OCC1c1ccc(C(F)(F)F)cc1 (racemic) [Compound 8] | 0

The compounds below were run on sedge, umbrella (small-flower umbrella sedge, Cyperus difformis) (assay: Test B flooded paddy test, umbrella sedge). Conditions: 250 g ai/ha; applied to paddy water at 2-leaf stage; 13 to 15 d; scale 0 no effect to 100 complete control.
Type: in vivo
Description: as §2

SMILES | Plant response rating, Flood, Sedge, Umbrella
O=C(Nc1ccccc1F)C1C(=O)OCC1c1ccc(C(F)(F)F)cc1 (racemic) [Compound 8] | 0

Same assay, conditions: 1000 g ai/ha; applied to paddy water at 2-leaf stage; 13 to 15 d; scale 0 no effect to 100 complete control

SMILES | Plant response rating, Flood, Sedge, Umbrella
O=C(Nc1ccccc1F)C1C(=O)OCC1c1ccc(C(F)(F)F)cc1 (racemic) [Compound 8] | 0

These compounds were tested on barnyardgrass (Echinochloa crus-galli) (assay: Test A postemergence, barnyardgrass). Conditions: 125 g ai/ha, visual rating after approx. 10 d, 0 to 100 scale, 0 no effect, 100 complete control.
Type: in vivo
Excerpt: as §1

SMILES | Plant response rating, Barnyardgrass
O=C(Nc1ccccc1F)C1C(=O)OCC1c1ccc(C(F)(F)F)cc1 (racemic) [Compound 8] | 0

Same assay, conditions: 500 g ai/ha, visual rating after approx. 10 d, 0 to 100 scale, 0 no effect, 100 complete control

SMILES | Plant response rating, Barnyardgrass
O=C(Nc1ccccc1F)C1C(=O)OCC1c1ccc(C(F)(F)F)cc1 (racemic) [Compound 8] | 20
